Source: patent publication US20100093616A1 (priority 2005, published 2010)

Key:
Assay type in all cases: in vivo, Lewis Rats
[1] = test system: Experimental Autoimmune Encephalytis (EAE); assay: Therapeutical effect in EAE biomodel (Example 1); details: therapeutical scheme; for N° of perivascular inflammatory infiltrates (Means ± SD): brain and spinal cord, day 40; for Incidence (%): i.p. 10 days from day 10 after first immunization, EGF/GHRP-6 200-740 μg/kg/day, EGF 200 μg/kg/day, GHRP-6 740 μg/kg/day, 8 rats per group
Experimental: Female Lewis Rats (130 g), were subcutaneously immunized with guinea pig spinal cord homogenate (5 mg) in PBS (50%) and complete Freund adjuvant (50%), during days 0 and 6. […] This therapeutical scheme was followed for 10 days, using intraperitoneal administration. Clinical scores was based on the following grading: 0; no symptom, 1; tail paralysis, 2; paralysis of any of the hind limbs, 3; full paralysis of the hind limbs, 4; complete paralysis of the fore and hind limbs 5; moribund or death. Weight loss and vesical and rectal sphincter incontinency, which are also clinical signs of the disease, are scored by adding 0.5 to the clinical index previously described. Forty days after the first immunization the animals were anesthetized and euthanized, the encephalon and spinal cord were processed for histopathological study (10% de formalin, H & E y Luxol Blue staining). For the histopathological analysis the following parameters were consider: number and size of perivascular inflammatory infiltrates, number of demyelination lesions, number of apoptotic neurons and glial cells and astrocytes reactivity. The microscopic study was blindly conducted.

[2] = test system: Experimental Autoimmune Encephalytis (EAE); assay: Dose study of the combination in EAE model, therapeutical scheme (Example 3); details: EGF component of the combination
Experimental: Looking for a range of doses for the pharmaceutical combination that would be efficient for the therapeutic effects, it was used in the afore mentioned EAE model Female Lewis Rats (130 g), were subcutaneously immunized with guinea pig spinal cord homogenate (5 mg) in PBS (50%) and complete Freund adjuvant (50%), during days 0 and 6.
(§1) This therapeutical scheme was followed for 10 days, using intraperitoneal administration. Clinical scores was based on the following grading: 0; no symptom, 1; tail paralysis, 2; paralysis of any of the hind limbs, 3; full paralysis of the hind limbs, 4; complete paralysis of the fore and hind limbs 5; moribund or death. Weight loss and vesical and rectal sphincter incontinency, which are also clinical signs of the disease, are scored by adding 0.5 to the clinical index previously described. Forty days after the first immunization the animals were anesthetized and euthanized, the encephalon and spinal cord were processed for histopathological study (10% de formalin, H & E y Luxol Blue staining). For the histopathological analysis the following parameters were consider: number and size of perivascular inflammatory infiltrates, number of demyelination lesions, number of apoptotic neurons and glial cells and astrocytes reactivity. The microscopic study was blindly conducted.

[3] = test system: Experimental Autoimmune Encephalytis (EAE); assay: Prophylactic scheme in EAE animal model (Example 2); details: for Clinical scores maximum / Clinical scores minimum / Incidence (%): EGF/GHRP-6 200-740, EGF 200, GHRP-6 740 μg/kg/day; for N° of perivascular inflammatory infiltrates (Means ± SD): brain and spinal cord, day 40, EGF/GHRP-6 200-740, EGF 200, GHRP-6 740 μg/kg/day; for Incidence (%): i.p. days -10 to -1 before first immunization, 8 rats per group
Description: as §1, with “prophylactic” for “therapeutical”, “days (−10 to −1 day before the first immunization),” for “days,”, “using the” for “using”, “administration route.” for “administration.”

[4] = EGF/GHRP-6 200-740, EGF 200, GHRP-6 740 μg/kg/day
[5] = i.p. 10 days, EGF/GHRP-6 200-740, EGF 200, GHRP-6 740 μg/kg/day
[6] = i.p. 10 days, EGF/GHRP-6 200-740, EGF 200, GHRP-6 740 μg/kg/day, scale 0-5
[7] = i.p. days -10 to -1, EGF/GHRP-6 200-740, EGF 200, GHRP-6 740 μg/kg/day

| Substance | N° of perivascular inflammatory infiltrates (Means ± SD) [1, 4] | Incidence (%) [1] [%] | Days of Debut (Mean ± SD) [1, 5] [days] | Disease duration [1, 5] | Clinical scores minimum [1, 6] | dose range that maintains usefulness of the combination for protection against induction of EAE [2] [µg/kg/day] | Clinical scores maximum ([3]; scale 0-5) | Clinical scores minimum ([3]; scale 0-5) | N° of perivascular inflammatory infiltrates (Means ± SD) [3] | Days of Debut (Mean ± SD) [3, 7] [days] | Incidence (%) [3] [%] | Clinical Scores Mean ± SD (mean clinical index) [1, 6] | Clinical scores maximum [1, 6] | Clinical scores Means ± SD (mean clinical index) ([3]; i.p. days -10 to -1, EGF/GHRP-6 200-740, EGF 200, GHRP-6 740 μg/kg/day, scale 0-5) |
| --- | --- | --- | --- | --- | --- | --- | --- | --- | --- | --- | --- | --- | --- | --- |
| Epidermal Growth Factor [EGF] | 4.5 ± 1.9 | 100 | 12.5 ± 0.57 | 12.7 ± 4.1 | 1 | 50 to 400 | 4 | 1 | 4 ± 1.6 | 11.5 ± 0.57 | 100 | – | – | – |
| His-D-Trp-Ala-Trp-D-Phe-Lys-NH sub 2 [GHRP-6] | 2.25 ± 1.25 | 100 | 13.7 ± 2.3 | 15.5 ± 6.7 | 0.5 | – | 4 | 1 | 2.7 ± 1.95 | 11.7 ± 2.3 | 100 | 1.5±1.6 | 4 | 2.7±1.03 |
